Active and inactive are the calls of the source.
Legend:
Coagulation factor XII = target: T1, Coagulation factor XII (Homo sapiens, UniProt P00748); type: functional;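 also: activated factor XIIa alpha cleaving a fluorogenic AMC peptide substrate; inhibitor potency from loss of enzyme activity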
T1 sequence (P00748 whole entry): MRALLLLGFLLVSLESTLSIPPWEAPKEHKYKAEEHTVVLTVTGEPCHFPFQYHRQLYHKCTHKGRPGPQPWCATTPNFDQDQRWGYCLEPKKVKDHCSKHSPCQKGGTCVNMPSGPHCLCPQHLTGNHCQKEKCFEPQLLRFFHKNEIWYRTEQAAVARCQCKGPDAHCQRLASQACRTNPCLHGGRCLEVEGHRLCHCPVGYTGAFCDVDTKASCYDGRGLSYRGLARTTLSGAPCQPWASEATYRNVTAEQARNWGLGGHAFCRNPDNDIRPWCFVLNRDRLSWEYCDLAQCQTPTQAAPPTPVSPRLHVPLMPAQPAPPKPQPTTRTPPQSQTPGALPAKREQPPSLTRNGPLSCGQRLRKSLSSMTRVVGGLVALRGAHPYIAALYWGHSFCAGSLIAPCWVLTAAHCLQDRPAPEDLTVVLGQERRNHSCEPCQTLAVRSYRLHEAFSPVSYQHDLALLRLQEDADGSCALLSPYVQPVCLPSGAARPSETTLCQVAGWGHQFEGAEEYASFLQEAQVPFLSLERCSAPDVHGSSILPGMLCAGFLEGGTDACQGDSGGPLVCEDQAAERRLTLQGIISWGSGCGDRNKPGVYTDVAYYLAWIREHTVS

[1] = target: T2, Ubiquitin-conjugating enzyme E2 N (Homo sapiens, UniProt P61088); type: functional;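 also: Dose-response confirmation in a TR-FRET assay detecting UBC13-driven polyubiquitin chain formation, inhibition measured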
T2 sequence (P61088 whole entry): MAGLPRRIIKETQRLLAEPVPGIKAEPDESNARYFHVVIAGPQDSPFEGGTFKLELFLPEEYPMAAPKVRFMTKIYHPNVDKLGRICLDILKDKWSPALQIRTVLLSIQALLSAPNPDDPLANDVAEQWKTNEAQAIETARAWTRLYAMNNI

Fatty acid synthase [2] = target: T3, Fatty acid synthase (Homo sapiens, UniProt P49327); experiment: inhibition of human FAS-TE enzyme activity – biochemical, endpoint fluorescence intensity, uHTS hits, dose response (AID 624327); type: functional;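 also: fluorescence from hydrolysis of an O-methyl fluorescein acyl ester substrate by the enzyme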
T3 sequence (P49327 whole entry): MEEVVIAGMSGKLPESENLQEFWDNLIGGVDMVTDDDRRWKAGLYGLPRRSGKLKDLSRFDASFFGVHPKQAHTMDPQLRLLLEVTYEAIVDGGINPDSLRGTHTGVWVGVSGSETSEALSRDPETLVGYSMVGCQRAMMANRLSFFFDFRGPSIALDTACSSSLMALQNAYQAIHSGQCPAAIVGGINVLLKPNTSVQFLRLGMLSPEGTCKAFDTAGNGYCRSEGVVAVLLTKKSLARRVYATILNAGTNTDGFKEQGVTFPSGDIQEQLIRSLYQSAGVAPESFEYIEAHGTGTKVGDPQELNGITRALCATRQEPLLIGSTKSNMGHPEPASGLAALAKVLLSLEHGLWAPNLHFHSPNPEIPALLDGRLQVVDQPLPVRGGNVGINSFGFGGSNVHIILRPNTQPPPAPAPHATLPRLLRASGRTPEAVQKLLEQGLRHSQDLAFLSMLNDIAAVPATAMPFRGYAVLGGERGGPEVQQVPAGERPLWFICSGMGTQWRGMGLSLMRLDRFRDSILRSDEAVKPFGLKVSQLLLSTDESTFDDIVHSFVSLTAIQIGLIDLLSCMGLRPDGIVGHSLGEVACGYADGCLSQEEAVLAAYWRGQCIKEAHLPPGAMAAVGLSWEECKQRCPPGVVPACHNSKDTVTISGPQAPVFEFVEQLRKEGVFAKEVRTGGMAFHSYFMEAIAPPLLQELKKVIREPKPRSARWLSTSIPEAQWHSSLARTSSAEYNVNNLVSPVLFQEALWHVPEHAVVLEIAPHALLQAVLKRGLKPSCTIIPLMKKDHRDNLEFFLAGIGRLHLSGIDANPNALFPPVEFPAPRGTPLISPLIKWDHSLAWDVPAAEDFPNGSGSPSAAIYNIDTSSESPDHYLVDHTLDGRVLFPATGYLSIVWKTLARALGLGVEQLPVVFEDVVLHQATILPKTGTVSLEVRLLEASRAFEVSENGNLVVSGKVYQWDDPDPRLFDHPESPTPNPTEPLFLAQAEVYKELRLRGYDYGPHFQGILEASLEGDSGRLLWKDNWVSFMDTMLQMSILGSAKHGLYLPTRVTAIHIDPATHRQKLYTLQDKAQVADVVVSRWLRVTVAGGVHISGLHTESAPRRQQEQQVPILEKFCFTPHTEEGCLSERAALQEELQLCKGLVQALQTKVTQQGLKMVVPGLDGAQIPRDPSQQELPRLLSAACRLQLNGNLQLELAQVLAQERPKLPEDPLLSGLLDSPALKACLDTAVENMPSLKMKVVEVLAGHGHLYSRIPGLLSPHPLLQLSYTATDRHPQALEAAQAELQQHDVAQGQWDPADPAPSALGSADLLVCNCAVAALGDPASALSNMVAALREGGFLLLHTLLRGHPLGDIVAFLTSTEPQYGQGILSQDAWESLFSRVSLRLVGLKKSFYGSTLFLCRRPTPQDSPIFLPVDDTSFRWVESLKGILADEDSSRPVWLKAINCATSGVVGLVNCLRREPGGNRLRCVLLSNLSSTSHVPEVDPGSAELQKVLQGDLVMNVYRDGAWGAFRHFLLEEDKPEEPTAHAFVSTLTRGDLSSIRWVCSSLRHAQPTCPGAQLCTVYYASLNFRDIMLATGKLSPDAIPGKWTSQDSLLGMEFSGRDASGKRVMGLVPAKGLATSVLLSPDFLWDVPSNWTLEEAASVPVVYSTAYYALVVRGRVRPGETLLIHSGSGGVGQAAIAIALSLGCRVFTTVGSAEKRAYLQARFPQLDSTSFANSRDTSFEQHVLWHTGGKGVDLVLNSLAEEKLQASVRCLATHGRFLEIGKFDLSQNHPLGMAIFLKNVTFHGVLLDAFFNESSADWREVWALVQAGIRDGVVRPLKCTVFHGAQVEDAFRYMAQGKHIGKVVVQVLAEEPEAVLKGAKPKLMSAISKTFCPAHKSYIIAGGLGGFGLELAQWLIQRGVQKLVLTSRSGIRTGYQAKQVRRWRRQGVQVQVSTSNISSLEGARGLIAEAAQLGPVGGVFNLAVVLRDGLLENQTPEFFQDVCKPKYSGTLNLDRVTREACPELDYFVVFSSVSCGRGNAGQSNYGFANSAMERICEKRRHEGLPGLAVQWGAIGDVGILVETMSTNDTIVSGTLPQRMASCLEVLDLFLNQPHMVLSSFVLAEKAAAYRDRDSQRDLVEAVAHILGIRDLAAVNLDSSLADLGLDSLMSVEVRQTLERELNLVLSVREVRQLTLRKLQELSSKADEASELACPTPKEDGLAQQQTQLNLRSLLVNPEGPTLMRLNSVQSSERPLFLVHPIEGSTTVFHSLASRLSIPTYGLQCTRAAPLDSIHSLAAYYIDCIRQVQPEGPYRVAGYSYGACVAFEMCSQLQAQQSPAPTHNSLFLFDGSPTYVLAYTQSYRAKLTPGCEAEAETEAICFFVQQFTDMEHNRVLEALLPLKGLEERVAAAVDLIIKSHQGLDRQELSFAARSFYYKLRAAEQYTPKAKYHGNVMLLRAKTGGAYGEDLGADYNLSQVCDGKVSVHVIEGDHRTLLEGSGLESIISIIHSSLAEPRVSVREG

Fatty acid synthase [3] = target: T3, Fatty acid synthase; experiment: inhibition of human FAS-TE enzyme activity – biochemical, kinetic fluorescence intensity, dose response (AID 624326); type: functional;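 also: rate of fluorescence rise from hydrolysis of a fluorogenic O-methyl fluorescein ester substrate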
HEK293 = experiment: EBV LMP1 TES2 canonical NF-kB signalling blockers – cell-based, HEK293, luciferase, cherry-pick, dose response (AID 588343); type: functional; conditions: Homo sapiens
[4] = Luminescence Cell-Based Dose Confirmation HTS to Identify Inhibitors of Platelet Dense Granule Release. [Related pubchem assays: 1663 (Primary HTS), 1678 (Summary of Project)]; type: functional
[5] = target: Luciferin 4-monooxygenase (Photinus pyralis, UniProt P08659); experiment: inhibition of purified Photinus pyralis luciferase – biochemical, luminescence, dose response (AID 1891)
Chain of Luciferin 4-monooxygenase (P08659 whole entry): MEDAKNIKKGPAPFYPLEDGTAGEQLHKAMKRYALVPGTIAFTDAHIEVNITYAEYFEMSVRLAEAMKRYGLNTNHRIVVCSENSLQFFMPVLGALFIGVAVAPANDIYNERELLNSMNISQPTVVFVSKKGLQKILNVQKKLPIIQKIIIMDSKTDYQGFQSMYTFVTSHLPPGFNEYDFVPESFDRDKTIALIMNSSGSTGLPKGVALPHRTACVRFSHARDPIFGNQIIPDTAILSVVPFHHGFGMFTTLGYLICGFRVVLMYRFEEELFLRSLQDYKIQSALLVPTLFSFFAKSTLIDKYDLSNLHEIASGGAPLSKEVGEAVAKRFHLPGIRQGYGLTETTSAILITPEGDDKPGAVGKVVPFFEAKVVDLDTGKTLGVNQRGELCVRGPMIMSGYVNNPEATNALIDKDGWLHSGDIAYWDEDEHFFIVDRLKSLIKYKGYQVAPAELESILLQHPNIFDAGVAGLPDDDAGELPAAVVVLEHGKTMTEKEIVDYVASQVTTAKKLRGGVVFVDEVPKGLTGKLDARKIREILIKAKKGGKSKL

H9c2 = experiment: cells; type: functional, cell-based; conditions: Rattus norvegicus, H9c2, Myocardium
[6] = Luminescence Cell-Based Dose Response HTS to Identify Inhibitors of 5'UTR Stem-Loop Driven Prion Protein mRNA Translation in H4 Neuroglioblastoma Cells. [Related pubchem assays: 1827 (Project Summary), 1813 (Primary HTS)]; type: functional
Protein skinhead-1 = target: T4, Protein skinhead-1 (Caenorhabditis elegans, UniProt P34707); type: functional
T4 sequence (P34707 whole entry): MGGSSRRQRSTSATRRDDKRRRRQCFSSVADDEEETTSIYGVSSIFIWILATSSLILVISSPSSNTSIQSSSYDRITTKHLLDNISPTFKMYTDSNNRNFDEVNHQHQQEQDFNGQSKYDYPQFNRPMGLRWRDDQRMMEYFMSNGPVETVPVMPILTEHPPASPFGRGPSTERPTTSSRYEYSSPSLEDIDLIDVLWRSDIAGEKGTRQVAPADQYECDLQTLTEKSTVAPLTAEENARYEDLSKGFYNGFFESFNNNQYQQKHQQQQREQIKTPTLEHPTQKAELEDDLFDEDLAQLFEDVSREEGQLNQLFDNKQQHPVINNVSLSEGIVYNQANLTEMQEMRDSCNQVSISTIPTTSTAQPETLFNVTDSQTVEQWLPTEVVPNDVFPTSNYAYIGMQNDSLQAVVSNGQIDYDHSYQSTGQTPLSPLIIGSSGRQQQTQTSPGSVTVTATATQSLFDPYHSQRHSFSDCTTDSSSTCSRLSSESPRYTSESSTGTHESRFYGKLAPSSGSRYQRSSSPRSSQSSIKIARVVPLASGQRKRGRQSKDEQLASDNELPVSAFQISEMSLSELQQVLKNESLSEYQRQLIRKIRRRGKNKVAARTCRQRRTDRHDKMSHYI

[7] = alpha-synuclein stem-loop luciferase translation blockers – H4 neuroglioma cells, luminescence, confirmation (AID 1988); type: functional, cell-based
[8] = blockade of melanocortin 4 receptor signaling – cell-based, plate reader, cherry pick, counter-screen for LGR2 antagonist project, dose response (AID 743444); type: functional;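 also: transfected HEK 293 cells stimulated with alpha-MSH peptide; potency of inhibitors of the alpha-MSH evoked signal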
[9] = luciferase reporter signal suppression in cells – H4 neuroglioma cells, luminescence, dose response (AID 1990); type: functional, cell-based
[10] = blockers of bursicon-stimulated LGR2 cAMP reporter – cell-based, HEK293, CRE-luciferase reporter, cherry pick, set 2, dose response (AID 743343); type: functional;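 also: transfected cells were stimulated with diluted bursicon conditioned medium after compound addition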
[11] = target: T5, Calpain-2 catalytic subunit (Sus scrofa, UniProt P43367); experiment: m-calpain protease blockers, concentration series – biochemical, fluorogenic peptide substrate, dose response (AID 1420); type: functional
T5 sequence (P43367 whole entry): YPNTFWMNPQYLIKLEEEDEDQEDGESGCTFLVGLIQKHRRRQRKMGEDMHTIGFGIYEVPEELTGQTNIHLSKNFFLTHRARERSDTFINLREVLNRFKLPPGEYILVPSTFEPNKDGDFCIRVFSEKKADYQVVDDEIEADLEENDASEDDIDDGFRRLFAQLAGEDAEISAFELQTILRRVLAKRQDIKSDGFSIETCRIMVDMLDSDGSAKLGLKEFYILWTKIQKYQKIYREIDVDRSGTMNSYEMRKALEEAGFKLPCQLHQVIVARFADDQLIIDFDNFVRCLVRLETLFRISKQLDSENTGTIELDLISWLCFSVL

## COC(=O)c1c(NC(=O)c2ccc(Br)s2)sc2c1CCC2
Coagulation factor XII
  IC50: 44.4 µM (active)

## O=C1c2cc(Cl)ccc2OC2(CCNCC2)C12CC(c1ccc(Cl)cc1)=NO2 (centres undefined)
[1]
  IC50: > 20 µM (inactive)

## O=C(CCNc1ccc(Br)cc1)c1cccc([N+](=O)[O-])c1
Fatty acid synthase [2]
  IC50: 13.3 µM (active)
Fatty acid synthase [3]
  IC50: 7.64 µM (active)

## COc1ccc(C(=O)OC(C)C(=O)NC(C)CCc2ccccc2)cc1[N+](=O)[O-] (centres undefined)
Fatty acid synthase [2]
  IC50: 19.1 µM (active)
Fatty acid synthase [3]
  IC50: 17.9 µM (active)

## O=C(NCc1ccc2c3c(cccc13)C(=O)N2)c1cccs1
Coagulation factor XII
  IC50: > 50 µM (inactive)

## Cc1c(NC(=O)c2ccc(Br)o2)cccc1C(=O)O
Coagulation factor XII
  IC50: > 50 µM (inactive)

## COc1ccc(Nc2oc(COc3ccc(Cl)cc3)nc2C#N)cc1
HEK293
  AC50: 4.08 µM (active)

## Cc1ccccc1Cn1cnc2c(NS(C)(=O)=O)c(C)c(C)cc21
Coagulation factor XII
  IC50: > 50 µM (inactive)

## COC(=O)c1sc(NC(=O)c2ccc(OC)cc2OC)nc1C
[4]
  EC50: 0.749 µM (active)
[5]
  EC50: 0.251 µM (active)
HEK293
  AC50: 0.545 µM (active)

## CNC(=O)COC(=O)/C=C/c1cn(-c2ccccc2)nc1-c1ccc(C)o1
[1]
  IC50: > 20 µM (inactive)
H9c2
  IC50: > 79 µM (inactive)

## COc1cc(SC)ccc1C(=O)Nc1ccc(Cl)cn1
[6]
  EC50: 1.33 µM (active)
Protein skinhead-1
  IC50: > 100 µM (inactive)
[7]
  EC50: 0.497 µM (active)
[8]
  AC50: 1.45 µM (active)
[9]
  EC50: 4.03 µM (inconclusive)
[10]
  AC50: 1.59 µM (active)

## CCc1nc2ccccc2c(C(=O)OCCN2C(=O)c3ccccc3C2=O)c1C
[1]
  IC50: > 20 µM (inactive)

## CCn1cc(C(=O)NCc2cccnc2)c(=O)c2cc(F)c(N3CCN(C(=O)c4ccco4)CC3)cc21
Coagulation factor XII
  IC50: > 50 µM (inactive)

## O=C(COC(=O)c1cc([N+](=O)[O-])ccc1N1CCOCC1)NCc1ccc(F)cc1
Fatty acid synthase [2]
  IC50: 1.44 µM (active)
Fatty acid synthase [3]
  IC50: 1.33 µM (active)

## Cc1noc(C)c1CSc1nc2ccccc2c(=O)n1-c1ccc(F)cc1F
[11]
  IC50: 4.76 µM (not active)
Coagulation factor XII
  IC50: > 50 µM (inactive)

## Cc1c(Br)c([N+](=O)[O-])nn1CCCC(=O)N1CCN(c2ccccc2)CC1
Fatty acid synthase [2]
  IC50: 11.6 µM (active)
Fatty acid synthase [3]
  IC50: 13.1 µM (active)
